For assay [1], the target named is T1, PKC-δ (Homo sapiens, UniProt Q05655). Nature of the assay: PKC-δ activity assay in situ in 293A cells. It counts as cell-based. Also on record: The human PKC-δ open reading frame was also cloned in the same vectors; expressed in transfected cells; host or cells: HEK 293A. To be noted: 20 μM, added 30 min prior to treatment, FIG. 3C. As for the experimental part:
The PKC-δ activity assay in situ was performed by a modification of procedures detailed by Williams and Schrier (Williams et al., Glucose-Induced Protein Kinase C Activity Regulates Arachidonic Acid Release and Eicosanoid Production by Cultured Glomerular Mesangial Cells,” J. Clin. Invest. 92:2889-2896 (1993), which is hereby incorporated by reference in its entirety). Cells were seeded into 48-well plates and transfected with 0.1 μg/well pcDNA3-hBVR. After 24 h, the medium was replaced with a starvation medium (0.1% serum) and incubation continued for another 24 h to synchronize cells. In some wells, PKC inhibitor Rottlerin (20 μM) was added 30 min before addition of PMA (100 nM) for 15 min. In some wells, hBVR-derived peptides were introduced to cells in their myristoylated form. Cells were washed with medium and incubated for 10 min at 30° C. in 50 μl of kinase assay buffer (137 mM NaCl, 5.4 mM KCl, 10 mM MgCl2, 0.3 mM Na2HPO4, 0.4 mM KH2PO4, 25 mM β-glycerophosphate, 5.5 mM D-glucose, 5 mM EGTA, 1 mM CaCl2, 20 mM HEPES (pH 7.2), 50 μg/ml digitonin, 120 μg/ml of PKC-δ specific substrate (ARRKRKGSFFGG; SEQ ID NO: 52) and 100 μM ATP labeled with 10 μCi/ml [γ-^32P]-ATP). The reaction was stopped with the addition of 25 μl of ice-cold 30% (wt/vol) TCA. The TCA-soluble fraction samples were transferred to p81 phospho-cellulose filters. […]

The target of a further assay is T2, hBVR and PKC-δ (Homo sapiens, UniProt Q05655).
T2 construct: The human PKC-δ open reading frame was amplified by PCR from a human brain cDNA library; expressed in transfected cells; host or cells: HEK293A
T2 sequence (Q05655 whole entry): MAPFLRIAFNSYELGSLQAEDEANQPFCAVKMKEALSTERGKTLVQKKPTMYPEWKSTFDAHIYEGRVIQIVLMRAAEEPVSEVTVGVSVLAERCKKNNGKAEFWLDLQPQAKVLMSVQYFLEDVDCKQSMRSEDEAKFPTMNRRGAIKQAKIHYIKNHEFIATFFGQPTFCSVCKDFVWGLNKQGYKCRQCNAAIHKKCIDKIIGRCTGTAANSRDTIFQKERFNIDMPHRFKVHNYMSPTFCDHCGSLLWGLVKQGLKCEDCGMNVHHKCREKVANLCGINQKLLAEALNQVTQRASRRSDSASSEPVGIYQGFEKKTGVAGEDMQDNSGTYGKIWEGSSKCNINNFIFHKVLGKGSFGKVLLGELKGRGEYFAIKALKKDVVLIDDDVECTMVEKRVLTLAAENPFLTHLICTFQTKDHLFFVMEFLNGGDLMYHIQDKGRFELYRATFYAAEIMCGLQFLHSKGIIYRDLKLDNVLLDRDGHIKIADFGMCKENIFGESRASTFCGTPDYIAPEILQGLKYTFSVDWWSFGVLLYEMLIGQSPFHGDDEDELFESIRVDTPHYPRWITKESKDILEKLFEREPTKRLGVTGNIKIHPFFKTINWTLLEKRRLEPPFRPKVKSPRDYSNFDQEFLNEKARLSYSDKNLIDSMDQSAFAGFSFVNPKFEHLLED
The assay is described as follows: Co-immunoprecipitation of hBVR and PKC-δ (anti-HA). The format is cell-based. The conditions noted are these: myristoylated peptide 2 h, then IGF-1, FIG. 9B. As for the experimental part:
(§1) Immunoprecipitation was performed on cell lysates prepared as described previously (Lerner-Marmarosh et al., “Regulation of TNF-alpha-Activated PKC-zeta Signaling By the Human Biliverdin Reductase: Identification of Activating and Inhibitory Domains of the Reductase,” FASEB J. 21:3949-3962 (2007), which is hereby incorporated by reference in its entirety). Immunoprecipitates were separated by SDS PAGE, and the proteins blotted to nitrocellulose membrane. The antibodies used for precipitation and for probing the membranes are as described in the specific figure legends.
(§2) Cell Culture, infection, transfection, and co-immunoprecipitation: HEK293A cells were grown and transfected with pcDNA3-HA-hBVR or pcDNA3-PKC-δ plasmids using conditions described elsewhere (Kravets et al., “Biliverdin Reductase, a Novel Regulator for Induction of Activating Transcription Factor-2 and Heme Oxygenase-1,” J. Biol. Chem. 279(19):19916-19923 (2004); Maines et al., “Human Biliverdin Reductase, a Previously Unknown Activator of Protein Kinase C BetaII,” J. Biol. Chem. 282(11):8110-8122 (2007), which are hereby incorporated by reference in their entirety), and overexpression was confirmed by western blotting. […]

The target in another assay is T3, PKC-δ and ERK1/2 (Homo sapiens, UniProt P27361+P28482+Q05655).
T3 construct: The human PKC-δ open reading frame was amplified by PCR from a human brain cDNA library; expressed in transfected cells; host or cells: HEK293A (PKC-δ transfected; ERK1/2 endogenous)
T3 sequence (Q05655 whole entry): as above
T3 sequence (P27361 2-379 limits assumed): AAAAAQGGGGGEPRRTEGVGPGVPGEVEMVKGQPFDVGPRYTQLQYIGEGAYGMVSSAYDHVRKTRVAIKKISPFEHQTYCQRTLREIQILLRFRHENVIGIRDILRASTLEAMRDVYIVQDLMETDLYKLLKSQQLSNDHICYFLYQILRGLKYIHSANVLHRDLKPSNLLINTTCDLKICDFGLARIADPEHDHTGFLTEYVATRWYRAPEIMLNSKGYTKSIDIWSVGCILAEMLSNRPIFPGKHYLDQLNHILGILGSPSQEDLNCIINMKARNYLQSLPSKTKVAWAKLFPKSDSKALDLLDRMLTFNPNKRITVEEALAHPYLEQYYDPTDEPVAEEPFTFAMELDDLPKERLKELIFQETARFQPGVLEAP
T3 sequence (P28482 2-360 limits assumed): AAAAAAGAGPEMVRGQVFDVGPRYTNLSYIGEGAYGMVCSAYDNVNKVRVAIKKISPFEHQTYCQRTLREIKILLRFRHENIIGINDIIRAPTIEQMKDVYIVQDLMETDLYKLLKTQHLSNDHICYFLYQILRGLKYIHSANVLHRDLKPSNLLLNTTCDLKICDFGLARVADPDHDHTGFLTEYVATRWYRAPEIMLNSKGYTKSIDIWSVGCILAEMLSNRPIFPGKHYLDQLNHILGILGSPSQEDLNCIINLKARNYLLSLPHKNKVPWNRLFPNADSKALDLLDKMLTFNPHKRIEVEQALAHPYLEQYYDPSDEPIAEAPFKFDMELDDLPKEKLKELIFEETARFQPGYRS
Nature of the assay: Co-immunoprecipitation of PKC-δ and ERK1/2 (anti-ERK1/2). The format is cell-based. The conditions noted are these: myristoylated peptide, IGF-1, FIG. 9D. As for the experimental part:
as §1, §2

For a further assay, the system named is recombinant human PKC-δ. Nature of the assay: PKC-δ kinase assay in vitro (p81 filter / autoradiography). The format is biochemical. To be noted: for phosphorylation of variant peptides as PKC-δ substrates: FIG. 4C; for phosphate incorporated into hBVR-derived peptides by PKC-δ: 10 μM peptide, 30 min at 30° C., FIG. 6C. The method, then:
Measurement of PKC-δ activity: In vitro kinase activity assays were performed with active recombinant human PKC-δ kinase (as a GST fusion protein). PKC-δ assay in vitro was performed using 5 ng purified enzyme in a 50 μl assay containing 50 mM HEPES pH 7.4, 10 mM MgCl2, 0.2 mM DTT, sonicated lipid activators (0.5 μg phosphatidylserine and 0.05 μg diacylglycerol) or lipid activators plus PMA (as indicated in appropriate experiments) and PKC-δ substrates. The reaction was started by the addition of 50 μM ATP labeled with 5 μCi [γ-^32P]-ATP. Incubation was performed for 15 min at 30° C., unless otherwise stated. The reaction was terminated on ice, either by the addition of Laemmli buffer followed by SDS-PAGE, transferred to PVDF membrane, and autoradiography, or by the addition of 1 volume 10% phosphoric acid for p81 transfer as described below. For autophosphorylation of PKC-δ 20 μM ATP was used to start the 40-min reaction.
When hBVR or its mutants were tested for their effect on PKC-δ activity, they were pre-incubated for 5 min at room temperature with the PKC prior to substrate addition. The hBVR-derived peptides were used at concentrations indicated in appropriate figures.
When hBVR or its mutants were assayed as the sole substrates for PKC, the incubation conditions were as described above and the incubation was for 40 min at 30° C. unless specified otherwise. The reaction was terminated by the addition of Laemmli buffer, and the reaction products were detected by SDS-PAGE, transfer to PVDF membrane, and autoradiography.
Measurement of PKC-δ activity: PKC-δ assay in vitro was performed using 0.1 ng/μl purified recombinant human PKC-δ kinase with reaction conditions specified by the manufacturer. Effector molecules such as hBVR or peptides were added 5 min prior to substrate. The reaction was started by the addition of [γ-^32P]-ATP (Lerner-Marmarosh et al., “Human Biliverdin Reductase: A Member of the Insulin Receptor Substrate Family with Serine/Threonine/Tyrosine Kinase Activity,” Proc. Natl. Acad. Sci. U.S.A. 102(20):7109-7114 (2005), which is hereby incorporated by reference in its entirety). Reaction products were detected either by gel electrophoresis and autoradiography or by the p81 filter assay. PKC-δ activity on agarose beads was also measured. Cell lysates were immunoprecipitated with anti-PKC-δ antibody followed by protein A/G agarose. The immunoprecipitates were used in kinase reactions containing 50 μM PKC-δ specific peptide substrate as above; incorporation of ^32P was measured by p81 method.

For assay [2], the target named is T1, PKC-δ. The assay is described as follows: PMA-induced PKC-δ membrane translocation, confocal microscopy. The format is cell-based. Also on record: inserting the open reading frame of PKC-δ into the plasmid pDsRed2-C1; expressed in transfected cells; host or cells: 293A. The conditions noted are these: 10 μM myristoylated peptide, PMA 15 min, FIG. 5E. As for the experimental part: Confocal microscopy: Experimental protocols were based on those described by Edwards et al., “Carboxyl-Terminal Phosphorylation Regulates the Function and Subcellular Localization of Protein Kinase C betall,” J. Biol. Chem. 274:6461-6468 (1999), which is hereby incorporated by reference in its entirety. 293A cells were grown in a chamber slide system (Nalge-Nunc International Corp., Naperville, Ill.). Cells were transfected with pEGFP-hBVR and/or the plasmid expressing Ds2-Red-PKC-δ fusion protein. After a 24 h starvation period, cells were fixed for 10 min in 4% Para-formaldehyde in PBS and permeabilized with 1% Triton X-100 in PBS. The cells were mounted with Vectashield (Vector Laboratories, Inc. Burlingame, Calif.), containing DAPI to visualize the nuclei. Non-transfected cells were permeabilized as above, treated with 1:150 dilution of polyclonal anti-PKC-δ antibodies, washed, blocked, and then treated with polyclonal anti-hBVR antibodies. The PBS-washed cells were then treated with Rhodamine-red-conjugated donkey anti-rabbit IgG antibodies (Jackson ImmunoResearch, West Grove, Pa.) for 30 min, followed by mounting. A Leica TCS SP (model DMRE) confocal microscope was used (Maines et al., “Human Biliverdin Reductase: A Previously Unknown Activator of Protein Kinase C-βII,” J. Biol. Chem. 282:8110-8122 (2007), which is hereby incorporated by reference in its entirety).

Experimental findings from patent US9598677B2, “Use of human biliverdin reductase and fragments thereof for the treatment of protein kinase C-delta and ERK related conditions” (University of Rochester, priority 2009, dated 2017) are described below.

Ends that are not written are not given here. * marks the point of attachment. Myristoyl = CCCCCCCCCCCCCC(=O)*

T1 sequence (Q05655 whole entry): as the sequence (Q05655 whole entry) above

For the compound `CC(=O)c1c(O)c(C)c(O)c(Cc2c(O)c3c(c(C(=O)/C=C/c4ccccc4)c2O)OC(C)(C)C=C3)c1O` [Rottlerin, reference compound], the “PKC-δ activation by PMA and hBVR in cells overexpressing the kinase” value on PKC-δ [1] is “significant reduction”. “FGFPAFSG (BVR peptide) [hBVR-derived hydrophobic (C-box) peptide]”: the “association between hBVR and PKC-δ, effect of peptide” value with hBVR and PKC-δ is recorded as “completely blocked”. Moreover, the “association of PKC-δ and ERK1/2, effect of peptide” value with PKC-δ and ERK1/2 is recorded as “inhibitory”. For “GLAANAYLSFHFK (BVR peptide) [second variant of the aa222-234 peptide, upstream lysine and arginine residues replaced by alanine]”, in the assay with recombinant human PKC-δ, the “phosphorylation of variant peptides as PKC-δ substrates” value is given as “not a substrate”. Still for that read-out and setting: the entry for “GLKRNRYLAFHFK (BVR peptide) [aa222-234 peptide with target serine replaced by alanine]” is “not a substrate”; for “GLKRNRYLAFHFKSGSL (BVR peptide) [alanine-mutant peptide (hBVR aa222-238), longer alanine-mutant peptide that includes two additional serines]” it is “markedly decreased phosphorylation”. Regarding “KKRILHCLGLA (BVR peptide) [hBVR-derived D-box peptide]”, the “association between hBVR and PKC-δ, effect of peptide” value with hBVR and PKC-δ is listed as “slight decrease in binding”. The “association of PKC-δ and ERK1/2, effect of peptide” value with PKC-δ and ERK1/2 is listed as “failed to block”. “SFHFKSGSL (Myristoyl-SFHFKSGSL) [hBVR-based peptide aa230-238]”: the “inhibition of phosphorylation of the commercial substrate” value with recombinant human PKC-δ (50 μM substrate/10 μM inhibitor, FIG. 5A) was “clearly differed”. The “PKC-δ translocation to the cell membrane upon PMA” value in the assay with PKC-δ [2] was “did not significantly affect”. As for “aa290-296: hBVR-derived peptide containing S294 in consensus PKC phosphorylation motif (KYCCSRK; UniProt P53004 290-296, looked up, fragment)”, the “phosphate incorporated into hBVR-derived peptides by PKC-δ” value with recombinant human PKC-δ is recorded as “several fold increase”. Same read-out and setting: the entry for “hBVR aa18-23: hBVR-derived peptide containing S21 in consensus PKC phosphorylation motif (RAGSVR; UniProt P53004 18-23, looked up, fragment)” is “several fold increase”.
